This passage reports IC50 results from publication PMC4112551 (Journal of biomolecular screening, 2012).

In this experiment the target is rhGCPII (extracellular part of human GCPII, amino acids 44–750) (Homo sapiens, UniProt Q04609). In words: Fluorescence polarization. Format: binding. A general note: Fluorescence polarisation rises when a labelled molecule tumbles more slowly, as on binding a larger partner.
rhGCPII (extracellular part of human GCPII, amino acids 44–750), sequence (Q04609 44-750): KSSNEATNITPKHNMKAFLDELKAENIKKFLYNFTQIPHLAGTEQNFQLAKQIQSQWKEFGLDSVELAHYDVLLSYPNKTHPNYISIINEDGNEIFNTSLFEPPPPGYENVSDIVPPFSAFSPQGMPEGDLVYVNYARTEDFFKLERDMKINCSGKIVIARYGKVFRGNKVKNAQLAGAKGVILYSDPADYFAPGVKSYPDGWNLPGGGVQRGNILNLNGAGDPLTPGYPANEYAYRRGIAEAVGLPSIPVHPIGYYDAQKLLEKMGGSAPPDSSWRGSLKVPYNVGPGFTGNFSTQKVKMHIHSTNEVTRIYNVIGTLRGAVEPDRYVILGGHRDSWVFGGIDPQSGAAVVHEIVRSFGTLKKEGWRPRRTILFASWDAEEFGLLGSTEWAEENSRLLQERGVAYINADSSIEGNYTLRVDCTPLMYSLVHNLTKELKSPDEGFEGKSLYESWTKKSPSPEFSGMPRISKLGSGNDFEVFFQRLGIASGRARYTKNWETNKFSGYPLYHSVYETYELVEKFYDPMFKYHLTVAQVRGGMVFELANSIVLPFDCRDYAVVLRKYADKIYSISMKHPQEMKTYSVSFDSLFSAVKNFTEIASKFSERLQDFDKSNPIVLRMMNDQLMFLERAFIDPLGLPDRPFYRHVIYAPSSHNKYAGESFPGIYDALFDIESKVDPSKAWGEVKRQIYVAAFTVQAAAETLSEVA

`N[C@@H](CCC(=O)O)C(=O)O` [glutamic acid] came in with an IC50 of 870 µM. For `N[C@@H](Cn1oc(=O)[nH]c1=O)C(=O)O` [quisqualate] the value was 16.7 µM.

Usually IC50 stands for the concentration needed to halve the response being measured. A high value points to weaker potency in that assay.
